The values below come from patent publication US20040072206A1, “Method for identifying modulators of transcription” (priority 2000, published 2004).

In this assay the target is T1, B. subtilis RNAP (Bacillus subtilis, UniProt P37870+P37871).
T1 construct: endogenous in cells; host or cells: Bacillus subtilis strain PL37 (built from strain 168)
Kind of assay: Dual reporter assay in strain PL37: test reporter Pxyl-lacZ and ratio of control to test reporter (RES:MUG). In kind it is cell-based. The following applies: strain PL37, DMSO control […]. Here is the method: 20 known antibiotics were tested at a range of concentrations to determine their effect on test and control reporters within the assay. […] Cultures of PL37 grown in PAB, were diluted to 0.05 A600 and then grown for 2 hours at 37° C. in PAB supplemented with 0.02 mM IPTG. Cells were pelleted and frozen. They were later resuspended and diluted in PAB supplemented with 0.02 mM IPTG and grown at 37° C. to early exponential phase. Cultures were then diluted to 0.05 A600 in PAB and added in 20 μl volumes to wells of microtitre plates containing 20 μl volumes of the antibiotics. Plates were incubated at 37° C. for two hours, and assay mix was added to detect reporter enzyme activity (see below).
Following the addition of 160 μl of assay mix (1.3×Z buffer containing 94 μg/ml lysozyme, 8.4 μg/ml 4-methylumbelliferyl-β-D-galactoside, 0.53 μg/ml resorufin-β-D-glucuronide and 0.05% Triton) to each well, the microtitre plate was incubated in the dark for 30 mini or 1 hour at room temperature. Fluorescence was read on a BMG FLUOstar Galaxy at excitation/emission 355/460 nm and 544/590 nm, respectively, with gains set at 5 and 25, respectively.
In general terms: Reporter assays use an easily measured gene product as a stand-in for the process of interest.

[1] abbreviates: Dilution Number 11 (lowest concentration tested: 0.125, 0.016 or 0.0005 μg/ml depending on antibiotic).
Where [2] appears, read: Dilution Number 1 (highest concentration tested: 128, 16 or 0.5 μg/ml depending on antibiotic).

Each structure is given as a SMILES string. Positions of bridges follow the written chain, without caps; N, C: chain ends. Non-standard residues stand in square brackets, D forms with d. Residues, ends and D or L forms follow the SMILES beside them. *: point of attachment. Ileψ(thiazoline)Cys = CC[C@H](C)[C@H](N)C1=N[C@H](C(=O)*)CS1; dOrn = NCCC[C@@H](N)C(=O)O

T1 sequence (P37871 whole entry): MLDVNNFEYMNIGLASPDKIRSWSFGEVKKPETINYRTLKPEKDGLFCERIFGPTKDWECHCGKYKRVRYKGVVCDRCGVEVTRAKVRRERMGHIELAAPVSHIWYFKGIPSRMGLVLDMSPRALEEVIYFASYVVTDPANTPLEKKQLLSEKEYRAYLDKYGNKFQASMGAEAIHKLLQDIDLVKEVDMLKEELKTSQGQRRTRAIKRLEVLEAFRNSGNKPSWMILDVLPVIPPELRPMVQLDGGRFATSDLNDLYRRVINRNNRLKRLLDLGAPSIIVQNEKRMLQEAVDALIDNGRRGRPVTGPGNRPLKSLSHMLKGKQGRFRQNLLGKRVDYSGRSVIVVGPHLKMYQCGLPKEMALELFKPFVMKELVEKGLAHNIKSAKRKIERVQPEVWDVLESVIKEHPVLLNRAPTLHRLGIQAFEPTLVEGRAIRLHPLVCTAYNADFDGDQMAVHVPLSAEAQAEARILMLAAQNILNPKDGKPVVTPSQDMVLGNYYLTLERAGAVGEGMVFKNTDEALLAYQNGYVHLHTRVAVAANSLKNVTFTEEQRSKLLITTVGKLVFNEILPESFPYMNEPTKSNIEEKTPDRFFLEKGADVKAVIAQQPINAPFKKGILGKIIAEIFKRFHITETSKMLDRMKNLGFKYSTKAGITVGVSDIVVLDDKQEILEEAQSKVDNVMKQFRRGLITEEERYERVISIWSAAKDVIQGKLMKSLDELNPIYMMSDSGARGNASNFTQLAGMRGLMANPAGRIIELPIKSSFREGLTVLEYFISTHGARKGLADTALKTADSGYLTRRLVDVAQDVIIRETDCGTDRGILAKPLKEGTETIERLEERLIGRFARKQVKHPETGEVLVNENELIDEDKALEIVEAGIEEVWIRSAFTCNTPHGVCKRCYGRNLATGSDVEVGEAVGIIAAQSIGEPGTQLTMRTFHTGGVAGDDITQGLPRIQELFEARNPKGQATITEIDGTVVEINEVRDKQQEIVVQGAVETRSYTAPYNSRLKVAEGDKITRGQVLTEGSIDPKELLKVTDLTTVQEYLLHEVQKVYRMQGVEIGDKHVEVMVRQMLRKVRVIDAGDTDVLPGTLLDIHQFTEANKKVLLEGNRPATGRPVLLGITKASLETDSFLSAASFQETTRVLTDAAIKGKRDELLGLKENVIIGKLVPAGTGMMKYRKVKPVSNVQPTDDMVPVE
T1 sequence (P20429 whole entry, further chain): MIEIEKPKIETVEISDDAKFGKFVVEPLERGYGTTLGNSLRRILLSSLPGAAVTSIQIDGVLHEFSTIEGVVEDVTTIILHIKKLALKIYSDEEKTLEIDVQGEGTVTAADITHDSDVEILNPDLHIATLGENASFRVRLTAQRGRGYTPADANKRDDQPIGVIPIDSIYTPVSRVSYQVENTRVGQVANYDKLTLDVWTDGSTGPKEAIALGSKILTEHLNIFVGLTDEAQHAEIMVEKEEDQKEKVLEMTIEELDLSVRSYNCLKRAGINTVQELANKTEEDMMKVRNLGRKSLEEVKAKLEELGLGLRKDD
T1 sequence (O35011 whole entry, further chain): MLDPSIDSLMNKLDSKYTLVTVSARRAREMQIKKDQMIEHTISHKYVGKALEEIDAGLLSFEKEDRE
T1 sequence (P37870 whole entry): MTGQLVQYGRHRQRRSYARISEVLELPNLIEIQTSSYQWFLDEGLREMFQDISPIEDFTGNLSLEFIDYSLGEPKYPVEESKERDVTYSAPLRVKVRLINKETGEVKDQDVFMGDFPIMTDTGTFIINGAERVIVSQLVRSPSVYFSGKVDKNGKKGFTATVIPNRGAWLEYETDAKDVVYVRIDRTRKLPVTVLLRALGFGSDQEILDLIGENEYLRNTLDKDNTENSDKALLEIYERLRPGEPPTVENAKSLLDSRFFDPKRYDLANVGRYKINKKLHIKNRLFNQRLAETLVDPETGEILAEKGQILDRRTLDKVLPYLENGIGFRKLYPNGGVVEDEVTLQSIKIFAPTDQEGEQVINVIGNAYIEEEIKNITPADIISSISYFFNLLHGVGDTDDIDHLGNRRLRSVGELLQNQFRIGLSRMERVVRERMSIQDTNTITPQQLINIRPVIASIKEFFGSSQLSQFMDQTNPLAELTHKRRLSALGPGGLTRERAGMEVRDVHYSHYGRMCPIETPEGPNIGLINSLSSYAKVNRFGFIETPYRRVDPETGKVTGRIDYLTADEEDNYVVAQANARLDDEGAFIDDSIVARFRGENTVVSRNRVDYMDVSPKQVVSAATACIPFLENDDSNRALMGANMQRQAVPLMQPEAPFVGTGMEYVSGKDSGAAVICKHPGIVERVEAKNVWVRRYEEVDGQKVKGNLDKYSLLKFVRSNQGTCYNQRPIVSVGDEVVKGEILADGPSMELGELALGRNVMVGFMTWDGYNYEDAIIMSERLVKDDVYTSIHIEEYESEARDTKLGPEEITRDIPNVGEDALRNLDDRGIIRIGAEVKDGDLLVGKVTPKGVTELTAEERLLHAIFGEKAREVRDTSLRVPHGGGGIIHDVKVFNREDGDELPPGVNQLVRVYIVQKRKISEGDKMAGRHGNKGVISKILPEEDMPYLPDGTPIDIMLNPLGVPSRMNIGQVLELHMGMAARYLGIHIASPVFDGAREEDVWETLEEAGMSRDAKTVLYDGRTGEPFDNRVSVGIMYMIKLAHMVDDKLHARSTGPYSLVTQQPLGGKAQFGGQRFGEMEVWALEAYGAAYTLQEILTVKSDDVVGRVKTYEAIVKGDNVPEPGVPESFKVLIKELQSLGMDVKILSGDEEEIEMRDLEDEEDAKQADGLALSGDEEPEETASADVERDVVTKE

With `CC1(C)S[C@@H]2[C@H](NC(=O)[C@H](N)c3ccccc3)C(=O)N2[C@H]1C(=O)O` [Ampicillin], the “Ratio of the control reporter (RES): test reporter (MUG)” value (“Ratio of the control reporter (RES)” for short) is, setting by setting: (Dilution Number 9) 1.16; (Dilution Number 10) 1.02; under setting [1], 1.06.

Consider `CC[C@H](C)[C@H](N)C1=N[C@H](C(=O)N[C@@H](CC(C)C)C(=O)N[C@H](CCC(=O)O)C(=O)N[C@H](C(=O)N[C@H]2CCCCNC(=O)[C@H](CC(N)=O)NC(=O)[C@@H](CC(=O)O)NC(=O)[C@H](Cc3cnc[nH]3)NC(=O)[C@@H](Cc3ccccc3)NC(=O)[C@H]([C@@H](C)CC)NC(=O)[C@@H](CCCN)NC2=O)[C@@H](C)CC)CS1` [Bacitracin] ({Ileψ(thiazoline)Cys}-L[dE]IK[dOrn]I[dF]H[dD]N; lactam 4-C), for which the “Ratio of the control reporter (RES)” value is, setting by setting: under setting [2], 1.32; (Dilution Number 2) 1.15; (Dilution Number 3) 1.12; (Dilution Number 4) 1.11; (Dilution Number 5) 1.14; (Dilution Number 6) 1.13. For the same compound, the “Ratio of the control reporter (RES)” value is, setting by setting: (Dilution Number 7) 1.09; (Dilution Number 8) 1.09; (Dilution Number 9) 1.09; (Dilution Number 10) 1.12; under setting [1], 1.13.

Turning to `CC1(C)S[C@@H]2[C@H](NC(=O)C(C(=O)O)c3ccccc3)C(=O)N2[C@H]1C(=O)O` (stereo partly shown) [Carbenicillin], the “Ratio of the control reporter (RES)” value stood at 1.37 under setting [2]; 1.49 (Dilution Number 2); 1.59 (Dilution Number 3); 1.63 (Dilution Number 4); 1.66 (Dilution Number 5); 1.64 (Dilution Number 6). The “Ratio of the control reporter (RES)” value is, setting by setting: (Dilution Number 7) 1.60; (Dilution Number 8) 1.03; (Dilution Number 9) 1.00; (Dilution Number 10) 1.05; under setting [1], 1.07.

For `CC1=C(C(=O)O)N2C(=O)[C@@H](NC(=O)[C@H](N)c3ccccc3)[C@H]2SC1` [Cephalexin], the “Ratio of the control reporter (RES)” value is reported as 1.73 under setting [2]; 1.78 (Dilution Number 2); 1.76 (Dilution Number 3); 1.62 (Dilution Number 4); 1.68 (Dilution Number 5); 1.81 (Dilution Number 6).

Regarding `O=C(N[C@H](CO)[C@H](O)c1ccc([N+](=O)[O-])cc1)C(Cl)Cl` [Chloramphenicol], the “Ratio of the control reporter (RES)” value is reported as 1.10 under setting [2]; 1.22 (Dilution Number 2); 1.27 (Dilution Number 3); 1.40 (Dilution Number 4); 1.90 (Dilution Number 5); 1.51 (Dilution Number 6). Further, the “Ratio of the control reporter (RES)” value is, setting by setting: (Dilution Number 7) 1.20; (Dilution Number 8) 1.16; (Dilution Number 9) 1.14; (Dilution Number 10) 1.13; under setting [1], 1.17.

Consider `CC[C@H]1OC(=O)[C@H](C)[C@@H](O[C@H]2C[C@@](C)(OC)[C@@H](O)[C@H](C)O2)[C@H](C)[C@@H](O[C@@H]2O[C@H](C)C[C@H](N(C)C)[C@H]2O)[C@](C)(O)C[C@@H](C)C(=O)[C@H](C)[C@@H](O)[C@]1(C)O` [Erythromycin], for which the “Ratio of the control reporter (RES)” value stood at 1.45 (Dilution Number 4); 1.58 (Dilution Number 5); 1.72 (Dilution Number 6); 1.73 (Dilution Number 7); 1.71 (Dilution Number 8); 1.56 (Dilution Number 9).

`CCC[C@@H]1C[C@@H](C(=O)N[C@@H]([C@H]2O[C@H](SC)[C@H](O)[C@@H](O)[C@H]2O)[C@@H](C)O)N(C)C1` [Lincomycin]: the “Ratio of the control reporter (RES)” value stood at 1.09 under setting [2]; 1.20 (Dilution Number 2); 1.29 (Dilution Number 3); 1.61 (Dilution Number 4); 1.91 (Dilution Number 5); 1.40 (Dilution Number 6). Moreover, the “Ratio of the control reporter (RES)” value is, setting by setting: (Dilution Number 7) 1.08; (Dilution Number 8) 0.99; (Dilution Number 9) 1.02; (Dilution Number 10) 1.03; under setting [1], 1.08.

In the case of `CC[C@@]1([C@@H]2O[C@@H]([C@H]3O[C@@](O)(CO)[C@H](C)C[C@@H]3C)C[C@@H]2C)CC[C@H]([C@]2(C)CC[C@]3(C[C@H](O)[C@@H](C)[C@@H]([C@@H](C)[C@@H](OC)[C@H](C)C(=O)O)O3)O2)O1` [Monensin], the “Ratio of the control reporter (RES)” value is, setting by setting: under setting [2], 1.74; (Dilution Number 2) 1.42; (Dilution Number 3) 1.45; (Dilution Number 4) 1.79; (Dilution Number 5) 2.06; (Dilution Number 6) 2.00. Moreover, the “Ratio of the control reporter (RES)” value turned out to be 1.88 (Dilution Number 7); 1.74 (Dilution Number 8); 1.54 (Dilution Number 9); 1.37 (Dilution Number 10); 1.33 under setting [1].

For `CCn1cc(C(=O)O)c(=O)c2ccc(C)nc21` [Nalidixic Acid], the “Ratio of the control reporter (RES)” value is 1.50 under setting [2]; 1.76 (Dilution Number 2); 1.74 (Dilution Number 3); 0.87 (Dilution Number 4); 0.68 (Dilution Number 5); 0.91 (Dilution Number 6). The “Ratio of the control reporter (RES)” value (Dilution Number 7) was found to be 1.18; the “Ratio of the control reporter (RES)” value (Dilution Number 8) is given as 1.25; the “Ratio of the control reporter (RES)” value (Dilution Number 9) is recorded as 1.26; the “Ratio of the control reporter (RES)” value (Dilution Number 10) is listed as 1.26; the “Ratio of the control reporter (RES)” value under setting [1] was determined as 1.22.

Turning to `CO[C@@H]1[C@@H](OC(N)=O)[C@@H](O)[C@H](Oc2ccc3c(O)c(NC(=O)c4ccc(O)c(CC=C(C)C)c4)c(=O)oc3c2C)OC1(C)C` [Novobiocin], the “Ratio of the control reporter (RES)” value came out at 1.33 under setting [2]; 1.70 (Dilution Number 2); 1.66 (Dilution Number 3); 1.49 (Dilution Number 4); 1.24 (Dilution Number 5); 0.81 (Dilution Number 6). For the same compound, the “Ratio of the control reporter (RES)” value was 0.85 (Dilution Number 7); 1.05 (Dilution Number 8); 1.14 (Dilution Number 9); 1.18 (Dilution Number 10); 1.19 under setting [1].

Take `CCn1cc(C(=O)O)c(=O)c2cc3c(cc21)OCO3` [Oxolinic Acid]: the “Ratio of the control reporter (RES)” value under setting [2] was found to be 0.89; the “Ratio of the control reporter (RES)” value (Dilution Number 2) was 1.33; the “Ratio of the control reporter (RES)” value (Dilution Number 3) was 1.63; the “Ratio of the control reporter (RES)” value (Dilution Number 4) was 1.77; the “Ratio of the control reporter (RES)” value (Dilution Number 5) is recorded as 2.02; the “Ratio of the control reporter (RES)” value (Dilution Number 6) was 1.86. The “Ratio of the control reporter (RES)” value (Dilution Number 7) turned out to be 0.96; the “Ratio of the control reporter (RES)” value (Dilution Number 8) was determined as 1.06; the “Ratio of the control reporter (RES)” value (Dilution Number 9) came out at 1.05; the “Ratio of the control reporter (RES)” value (Dilution Number 10) came to 1.14; the “Ratio of the control reporter (RES)” value under setting [1] is reported as 1.17.
